Article PMC11750672, “The in vivo metabolic pathway of Deg-AZM and in vitro investigations into the contribution of drug metabolizing enzymes and drug transporters in the drug interactions of Deg-AZM, a clinical-stage new transgelin agonist” (Frontiers in Pharmacology, 2025)

Tests used:
CYP1A2 = test: CYP induction (mRNA, qPCR) in human hepatocytes; type: in vitro ADME; details: for CYP1A2 induction, % of PC: PC omeprazole 50 μM
Text: (§1) After culture and complete induction, total mRNA was extracted by TRNzol RNA Extraction Kit (purchased from Tiangen Biochemical Technology Co., Ltd., Beijing). The RNA was reverse transcribed into cDNA according to the instructions of the Transcriptor First Strand cDNA Synthesis Kit (purchased from Roche, Switzerland). Using reverse transcribed cDNA as a template, amplifying the internal reference genes of β-Actin of the sample and target genes of CYP1A2, CYP2B6, and CYP3A4 respectively to compare the expression differences.

CYP3A4 = test: CYP induction (mRNA, qPCR) in human hepatocytes; type: in vitro ADME; details: for CYP3A4 induction, % of PC: PC rifampicin 20 μM
Text: as §1

P-gp [1] = tested on: T1, P-gp; test: Bidirectional transport in Caco-2 cell monolayer with P-gp inhibitor quinidine; type: in vitro ADME, human; details: human, Caco-2, with quinidine 50 μM, (+) quinidine 50 μM, 37°C 1 h, n = 3
T1 construct: evaluated using Caco-2 cell monolayer both apical-to-basolateral (A-B) and basolateral-to-apical (B-A) directions; endogenous in cells; host or cells: Caco-2
Method: (§2) The human colon adenocarcinoma Caco-2 cell line was provided by Institute of Basic Medicine, Chinese Academy of Medical Sciences (Beijing, China). Caco-2 cells were cultured in a high sugar DMEM medium containing 10% (v/v) fetal bovine serum at 37°C and 5% CO2 incubator. Caco-2 cells (2.5 ×10^5/mL) was inoculated into Transwell polycarbonate membrane 12 well plate. The culture medium was changed every 2 days for the first 14 days, and then every day. After 21 consecutive days, fully differentiated cell monolayers were obtained for drug transport assays.
(§3) Transepithelial electrical resistance (TEER) was used to indicate monolayer integrity. The electrode of the Millcell ERS-2 voltammeter was placed in HBSS solution for 20 min to pre-balance. At the same time, the culture medium was removed from the Transwell culture plate, 0.5 mL of pre-heated HBSS solution was added into the Apical (AP) of transwell, 1.5 mL of pre-heated HBSS solution was added into the Basolateral (BL) of transwell. After that, the transwell was balanced at 37°C for 20 min and then replaced the HBSS solution with the pre-heated HBSS solution, the TEER value was measured finally. Caco-2 cell monolayers with TEER >350 Ω cm^2 which means that the cells have formed a tight monolayer, were used for the experiment. The TEER value was calculated according to the following formula: TEER=TEERT ‐ TEERc×A where TEERT represented the TEER value (Ω) of the measured Transwell chamber with Caco-2 cells, TEERC was the TEER value (Ω) of the transwell chamber in the control group, and A was the membrane area of the transwell cavity (1.12 cm^2 in this experiment).
(§4) In order to evaluate the usability of the Transwell model research, [^3H] Propranolol (0.5 μCi/mL) and [^14C] PEG4000 (1 μCi/mL) served as high-permeability and impermeability controls to verify the uptake direction on Caco-2 cell monolayer, respectively. Rhodamine 123 was used as a positive control for efflux mechanism in bidirectional transport assay on Caco-2 cell monolayer.
(§5) The transmembrane permeability of Deg-AZM (2, 10 or 50 µM) and the potential to inhibit P-gp by Deg-AZM (2, 10 or 50 µM) were evaluated using Caco-2 cell monolayer both apical-to-basolateral (A-B) and basolateral-to-apical (B-A) directions at 37°C for 1 h, the experiments were conducted using quinidine (50 μM) as the inhibitor for P-gp. At the end of incubation, receiver and donor samples were both diluted by assay buffer and analyzed by LC-MS/MS.

P-gp [2] = molecular target: T2, P-gp (Homo sapiens, UniProt P08183); test: as above; type: in vitro ADME; details: ER > 2, reduced after quinidine
T2 construct: evaluated using Caco-2 cell monolayer both apical-to-basolateral (A-B) and basolateral-to-apical (B-A) directions; endogenous in cells; host or cells: Caco-2
Method: as §2, §3, §4, §5

[3] = Excretion and material balance in rats (urine, feces 0-24 h); type: in vivo; details: through the kidneys and urine
Method: The plasma samples at 0.167 h, 0.5 h, 3 h and 8 h after administration were obtained from the study of tissue distribution in rats ([Gu et al., 2024]). Urine, feces and bile samples at 0–24 h after administration were obtained from the excretion study of a single gavage administration of 25 mg/kg Deg-AZM in rats ([Gu et al., 2024]).
The types and proportions of metabolites in the excretion pathway were elucidated in this study. […] Based on the peak area in this study, the total amount of metabolites in urine and feces of rats was 0.589 times and 9.96 times that of the original form of Deg-AZM, respectively. The total amount of Deg-AZM excreted in its original form and various metabolites in urine and feces was 23.7% and 19.8% of the administered dose, respectively, with a material balance coefficient of 43.5%. Deg-AZM was mainly excreted in the form of its original form M0 (cumulative excretion fraction of 14.9%) and metabolite M2 (cumulative excretion fraction of 5.33%) through the kidneys and urine, and in the form of metabolite M1-2 (cumulative excretion fraction of 4.29%) and M2 (cumulative excretion fraction of 3.93%) through the intestines and feces. […] It is necessary to obtain standard samples of the main metabolites for accurate quantification or use isotope tracing techniques to further improve material balance research in the clinical stage.

[4] = design: method as in Gu et al., 2024; details: rats, 0-24 h; ref Gu et al., 2024; cited from earlier work
[5] = 5 μM, hepatocyte batch LHuf 17905B
[6] = 25 μM, hepatocyte batch LHuf 17905B
[7] = 100 μM, hepatocyte batch LHuf 17905B

T2 sequence (P08183 whole entry): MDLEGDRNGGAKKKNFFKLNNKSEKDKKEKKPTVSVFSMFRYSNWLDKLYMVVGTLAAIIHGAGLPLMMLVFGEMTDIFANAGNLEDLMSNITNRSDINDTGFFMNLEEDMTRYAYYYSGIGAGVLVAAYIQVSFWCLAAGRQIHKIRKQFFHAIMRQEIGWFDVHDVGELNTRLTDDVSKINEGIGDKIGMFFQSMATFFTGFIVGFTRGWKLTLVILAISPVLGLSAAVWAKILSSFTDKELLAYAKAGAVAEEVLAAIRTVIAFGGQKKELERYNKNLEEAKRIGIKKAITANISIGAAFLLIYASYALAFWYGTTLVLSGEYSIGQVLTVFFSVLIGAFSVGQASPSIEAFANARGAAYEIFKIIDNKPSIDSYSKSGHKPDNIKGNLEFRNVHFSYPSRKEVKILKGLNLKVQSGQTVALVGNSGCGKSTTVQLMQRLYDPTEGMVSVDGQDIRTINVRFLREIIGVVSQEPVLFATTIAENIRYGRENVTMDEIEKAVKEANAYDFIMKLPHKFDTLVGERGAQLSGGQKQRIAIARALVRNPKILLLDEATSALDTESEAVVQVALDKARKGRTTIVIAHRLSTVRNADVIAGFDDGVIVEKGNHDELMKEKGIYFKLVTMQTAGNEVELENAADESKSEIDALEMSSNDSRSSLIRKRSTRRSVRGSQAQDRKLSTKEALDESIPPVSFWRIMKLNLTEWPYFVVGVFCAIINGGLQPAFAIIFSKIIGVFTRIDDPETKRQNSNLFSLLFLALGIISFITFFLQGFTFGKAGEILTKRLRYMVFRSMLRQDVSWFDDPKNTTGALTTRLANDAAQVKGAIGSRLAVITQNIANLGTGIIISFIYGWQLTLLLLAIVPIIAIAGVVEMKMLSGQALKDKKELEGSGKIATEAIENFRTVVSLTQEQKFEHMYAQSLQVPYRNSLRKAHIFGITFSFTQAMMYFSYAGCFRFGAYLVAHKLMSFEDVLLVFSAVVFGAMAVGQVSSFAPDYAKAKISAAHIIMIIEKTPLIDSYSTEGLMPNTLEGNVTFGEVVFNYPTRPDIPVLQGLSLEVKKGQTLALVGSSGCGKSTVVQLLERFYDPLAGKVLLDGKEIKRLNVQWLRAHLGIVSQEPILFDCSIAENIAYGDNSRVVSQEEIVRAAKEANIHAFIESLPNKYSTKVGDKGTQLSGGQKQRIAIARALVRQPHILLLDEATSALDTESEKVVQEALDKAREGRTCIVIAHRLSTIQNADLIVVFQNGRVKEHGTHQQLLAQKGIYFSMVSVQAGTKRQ

## CCC1OC(=O)C(C)C(O)C(C)C(O)C(C)(O)CC(C)CN(C)C(C)C(O)C1(C)O (stereo not drawn) [Deg-AZM, Deglycosylated azithromycin]
CYP1A2; 5 μM, batch HUB
  CYP1A2 induction, % of PC: −0.318%
CYP1A2; 5 μM, batch LHuf 17905B
  CYP1A2 induction, % of PC: −0.507%
CYP1A2; 5 μM, batch MWB
  CYP1A2 induction, % of PC: 0.0293%
CYP1A2; 5 μM, hepatocyte batch HUB
  CYP1A2 mRNA induction, times of control group: 0.850
CYP1A2; [5]
  CYP1A2 mRNA induction, times of control group: 0.721
CYP1A2; 5 μM, hepatocyte batch MWB
  CYP1A2 mRNA induction, times of control group: 1.02
CYP1A2; 25 μM, batch HUB
  CYP1A2 induction, % of PC: −0.349%
CYP1A2; 25 μM, batch LHuf 17905B
  CYP1A2 induction, % of PC: −0.569%
CYP1A2; 25 μM, batch MWB
  CYP1A2 induction, % of PC: −0.0814%
CYP1A2; 25 μM, hepatocyte batch HUB
  CYP1A2 mRNA induction, times of control group: 0.835
CYP1A2; [6]
  CYP1A2 mRNA induction, times of control group: 0.687
CYP1A2; 25 μM, hepatocyte batch MWB
  CYP1A2 mRNA induction, times of control group: 0.948
CYP1A2; 100 μM, batch HUB
  CYP1A2 induction, % of PC: 0.0545%
CYP1A2; 100 μM, batch LHuf 17905B
  CYP1A2 induction, % of PC: −0.209%
CYP1A2; 100 μM, batch MWB
  CYP1A2 induction, % of PC: −0.319%
CYP1A2; 100 μM, hepatocyte batch HUB
  CYP1A2 mRNA induction, times of control group: 1.03
CYP1A2; [7]
  CYP1A2 mRNA induction, times of control group: 0.885
CYP1A2; 100 μM, hepatocyte batch MWB
  CYP1A2 mRNA induction, times of control group: 0.797
CYP1A2; 5, 25, and 100 µM, three batches of human hepatocytes
  Induction effect on CYP1A2 (conclusion): no induction effect
CYP3A4; 5 μM, batch HUB
  CYP3A4 induction, % of PC: 2.15%
CYP3A4; 5 μM, batch LHuf 17905B
  CYP3A4 induction, % of PC: 5.55%
CYP3A4; 5 μM, batch MWB
  CYP3A4 induction, % of PC: 1.99%
CYP3A4; 5 μM, hepatocyte batch HUB
  CYP3A4 mRNA induction, times of control group: 1.80
CYP3A4; [5]
  CYP3A4 mRNA induction, times of control group: 2.30
CYP3A4; 5 μM, hepatocyte batch MWB
  CYP3A4 mRNA induction, times of control group: 1.96
CYP3A4; 25 μM, batch HUB
  CYP3A4 induction, % of PC: 3.06%
CYP3A4; 25 μM, batch LHuf 17905B
  CYP3A4 induction, % of PC: 12.1%
CYP3A4; 25 μM, batch MWB
  CYP3A4 induction, % of PC: 6.32%
CYP3A4; 25 μM, hepatocyte batch HUB
  CYP3A4 mRNA induction, times of control group: 2.13
CYP3A4; [6]
  CYP3A4 mRNA induction, times of control group: 3.84
CYP3A4; 25 μM, hepatocyte batch MWB
  CYP3A4 mRNA induction, times of control group: 4.05
CYP3A4; 100 μM, batch HUB
  CYP3A4 induction, % of PC: 13.5%
CYP3A4; 100 μM, batch LHuf 17905B
  CYP3A4 induction, % of PC: 54.2%
CYP3A4; 100 μM, batch MWB
  CYP3A4 induction, % of PC: 29.3%
CYP3A4; 100 μM, hepatocyte batch HUB
  CYP3A4 mRNA induction, times of control group: 6.01
CYP3A4; [7]
  CYP3A4 mRNA induction, times of control group: 13.7
CYP3A4; 100 μM, hepatocyte batch MWB
  CYP3A4 mRNA induction, times of control group: 15.2
CYP3A4; 5, 25, and 100 µM, three batches of primary human hepatocytes
  Induction effect on CYP3A4 (conclusion): has an inducing effect
P-gp [1]; 2 μM
  Papp A→B at 1 h, 2 μM: 0.823 ± 0.0911 ×10⁻⁶ cm/s
  Papp B→A at 1 h, 2 μM: 0.617 ± 0.0488 ×10⁻⁶ cm/s
P-gp [1]; 10 μM
  Papp A→B at 1 h, 10 μM: 0.471 ± 0.0908 ×10⁻⁶ cm/s
  Papp B→A at 1 h, 10 μM: 0.52 ± 0.119 ×10⁻⁶ cm/s
P-gp [1]; 50 μM
  Papp A→B at 1 h, 50 μM: 0.589 ± 0.0315 ×10⁻⁶ cm/s
  Papp B→A at 1 h, 50 μM: 0.586 ± 0.117 ×10⁻⁶ cm/s
P-gp [2]
  P-gp substrate assessment: might be the substrate of intestinal efflux transporter P-gp
[3]
  Cumulative excretion fraction, urine: 14.9%
[4]
  Amount excreted in original form from feces: 1.81 % of the administered dose
  Amount excreted in original form from urine: 14.9 % of the administered dose
